pIC50: −log10 of the molar value.
Legend:
[1] = Metal chelating activity (spectrophotometric), Fe2+; type: binding; conditions: chelation equilibrium constant, calculated for a pure phenylpropanoid
Text: (§1) The chelating activities of Syringa vulgaris extracts, verbascoside and isoverbascoside in relation to Fe^2+, Fe^3+, Cu^2+ and Ni^2+ metal ions has been determined by means of spectrophotometric measurements using a Shimadzu 1770 UV spectrophotometer. The activities of chelating agents depends on the association constant (equilibrium) of their reactions with the metals according to the following reaction:
(§2) [formula] wherein Keq is the equilibrium constant equal to the ratio of concentrations at equilibrium of a complex and product of equilibrium concentrations of metal ions and a chelator:
(§3) [formula] The method used for determining chelating activity is well documented in the literature (Korkina L G, Afarras'er IB. Antioxidant and chelating properties of flavonoids. Adv. Pharmacol., 1997, 38:151-63). The results are expressed as Keg (M^−1) calculated for a pure phenylpropanoid. This way the chelating activity against ferrous (Fe II), ferric (Fe III), copper (Cu II) and nickel ions has been calculated.

[2] = Metal chelating activity (spectrophotometric), Fe3+; type: binding; conditions: chelation equilibrium constant, calculated for a pure phenylpropanoid
Text: as §1, §2, §3

[3] = Metal chelating activity (spectrophotometric), Cu2+; type: binding; conditions: chelation equilibrium constant, calculated for a pure phenylpropanoid
Text: as §1, §2, §3

[4] = Metal chelating activity (spectrophotometric), Ni2+; type: binding; conditions: chelation equilibrium constant, calculated for a pure phenylpropanoid
Text: as §1, §2, §3

5 alpha reductase type I = target: T1, 5 alpha reductase type I (Homo sapiens, UniProt P18405); assay: Type I 5 alpha reductase inhibition (14C testosterone conversion); type: biochemical; conditions: pH 7.0
T1 construct: made in house; host or cells: genetically modified yeast
T1 sequence (P18405 1-259): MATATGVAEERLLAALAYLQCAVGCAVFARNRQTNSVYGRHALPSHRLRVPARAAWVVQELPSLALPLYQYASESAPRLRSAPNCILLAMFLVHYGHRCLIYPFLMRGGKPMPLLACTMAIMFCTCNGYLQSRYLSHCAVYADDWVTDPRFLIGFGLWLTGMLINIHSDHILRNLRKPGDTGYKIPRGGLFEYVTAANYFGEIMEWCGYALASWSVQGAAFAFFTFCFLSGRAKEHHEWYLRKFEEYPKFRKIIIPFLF
Protocol: (§4) Determination of the 5 alpha reductase inhibitory activities by Syringa vulgaris extracts, verbascoside and isoverbascoside in comparison to Serenoa repens extracts. Said determination, has been performed using enzymes (5 alpha reductase, type I and type II) produced by genetically modified yeast. Enzyme activities have been determined in the presence of Syringa vulgaris and Serenoa repens extracts, verbascoside isoverbascoside.
Type I 5 alpha reductase activity has been assayed by incubating the enzyme in 0.1M Tris-citrate buffer (pH 7.0), containing 5 μM (^14C) radio-labelled testosterone (Amersham, Sweden) and 5 mM NADPH (Sigma) in a final volume of 5 ml. The solution thus obtained has been incubated for 1 hour at 37° C.
(§5) In both assays, the steroids have been extracted using 5 ml of methylene chloride. The extracts have then been dried under a stream of nitrogen and the dried residues obtained have, been dissolved in 20 μl of a chloroform-methanol mixture (2:1 v/v). […] For quantification of the results, the spots have been scraped from the TLC plate and extracted with 2 ml of ethyl acetate. The extracts obtained have been analysed, using scintillation fluid, with the aid of a Wallach […]. The enzyme activity has been calculated from the percentage conversion (C %) of the substrate into final product:
(§6) C %=[counted product/(counted substrate+product)]×100.

[5] = target: T2, 5 alpha reductase type II (Homo sapiens, UniProt P31213); assay: Type II 5 alpha reductase inhibition (14C testosterone conversion); type: biochemical; conditions: pH 5.0
T2 construct: made in house; host or cells: genetically modified yeast
T2 sequence (P31213 1-254): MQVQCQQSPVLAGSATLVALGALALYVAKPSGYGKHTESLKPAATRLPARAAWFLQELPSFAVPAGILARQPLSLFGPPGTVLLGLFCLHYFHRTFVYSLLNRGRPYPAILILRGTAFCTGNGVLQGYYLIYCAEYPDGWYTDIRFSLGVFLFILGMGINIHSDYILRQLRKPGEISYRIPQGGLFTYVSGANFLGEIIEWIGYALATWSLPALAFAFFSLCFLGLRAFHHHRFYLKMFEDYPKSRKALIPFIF
Text: as §4
Determination of the type II 5 alpha reductase activity has been performed in an analogous manner to that just described, with the exception of a different pH value for the 0.1 M Tris-citrate buffer (pH 5.0).
as §5, with “v/v). An aliquot of said mixture has been deposited on the surface of a silica gel TLC plate.” for “v/v).”
as §6

tyrosinase [6] = assay: Tyrosinase inhibition, oxidation of L-tyrosine to L-DOPA; type: biochemical; conditions: 250 μg/ml
Text: (§7) The enzyme tyrosinase catalyses the reactions leading to melanin biosynthesis from tyrosine. […] Substances inhibiting tyrosinase activity produce clearing/bleaching effect on the skin, since they block melanin synthesis. The method used to determine the inhibition of tyrosinase activity in the oxidation reaction of L-tyrosine to L-DOPA is that described in Kim et al. […] Biol. Pharm. Bull. 28(2), 323-327, 2005). The method applied for determination of the inhibition of tyrosinase activity in the conversion of L-DOPA to DOPAquinone is that described in Masamoto et al. (Mushroom tyrosinase inhibitory activity of esculetin isolated from seeds of Euphorbia lathyris L. Biosci. Biotechnol. Biochem., 67(3), 631-634, 2003).

tyrosinase [7] = assay: Tyrosinase inhibition, conversion of L-DOPA to DOPAquinone; type: biochemical, Mushroom; conditions: 100 μg/ml
Text: as §7

[8] = Peroxynitrite assay (SIN-1, PTIO spin trap, ESR); type: biochemical; conditions: mean of 6 independent assays
Text: The superoxide anion has been measured by a chemiluminescent assay based on the hypoxanthine (HPX)/xanthine oxidase (XOD) reaction using the Lumimax Superoxide Anion Detection Kit (Stratagene, La Jolla, Calif., USA) and following the manufacturer's instructions. Hydroxyl radical scavenger activity has been measured by means of the Fenton reaction for the production of hydroxyl radicals and chemiluminescent dosage (using a Victor^3 chemiluminometer, Wallac, Finland) with luminol. Peroxynitrite ions have been determined by means of dosage with a spontaneous generator of peroxynitrites (3-morpholinosidnonimine hydrochloride; SIN-1) and a stable reagent for the nitroxyl ions (2-(4-carboxyphenyl)-4,4,5,5-tetramethylimidazoline-1-oxyl-3-oxide potassium salt PTIO spin trap) then dosed by means of electron spin resonance (ESR) using a. Nippon Denshi JES-FR30.
Extract 1 and Extract 2 listed in Table are derived from Syringa vulgaris cell cultures. […] The results are expressed as the concentration inhibiting 50% of activity (IC50). The values reported are the means of 6 independent assays.

Compound: CC1OC(OC2C(O)C(COC(=O)C=Cc3ccc(O)c(O)c3)OC(OCCc3ccc(O)c(O)c3)C2O)C(O)C(O)C1O [Isoverbascoside, b-(3,4-dihydroxyphenyl)-ethyl-O-α-L-ramnopyranosyl(1″-3′)-b-D-(6′-O-caffeoil)glucopyranoside]
- Fe^2+ (Keq, M^−1) [1]: 460000 ± 120000 M⁻¹
- Fe^3+ (Keq, M^−1) [2]: 130000 ± 40000 M⁻¹
- Cu^2+ (Keq, M^−1) [3]: 130000 ± 60000 M⁻¹
- Ni^2+ (Keq, M^−1) [4]: 1398 ± 362 M⁻¹
- pIC50 (5 alpha reductase type I): 4.72
- pIC50 [5]: 4.49
- Test L-tyrosine-DOPA inhibitory activity (%) (tyrosinase [6]): 10.9%
- Test LDOPA-DOPAquinone inhibitory activity (%) (tyrosinase [7]): 10%

Compound: C[C@@H]1O[C@@H](O[C@@H]2[C@@H](O)[C@H](OCCc3ccc(O)c(O)c3)O[C@H](CO)[C@H]2OC(=O)/C=C/c2ccc(O)c(O)c2)[C@H](O)[C@H](O)[C@H]1O [Verbascoside, b-(3,4-dihydroxyphenyl)-ethyl-O-α-L-ramnopyranosyl (1″-3′)-b-D-(4′-O-caffeoil)-glucopyranoside]
- Peroxynitrite radical (IC50) [8]: 1.6 µg/mL
- Fe^2+ (Keq, M^−1) [1]: 450000 ± 110000 M⁻¹
- Fe^3+ (Keq, M^−1) [2]: 120000 ± 50000 M⁻¹
- Cu^2+ (Keq, M^−1) [3]: 120000 ± 40000 M⁻¹
- Ni^2+ (Keq, M^−1) [4]: 1427 ± 319 M⁻¹
- pIC50 (5 alpha reductase type I): 4.68
- pIC50 [5]: 4.47
- Test L-tyrosine-DOPA inhibitory activity (%) (tyrosinase [6]): 19.6%
- Test LDOPA-DOPAquinone inhibitory activity (%) (tyrosinase [7]): 20.6%

Reference: patent US10456434B2, “Extracts obtained from cell line cultures from plants belonging to the Oleaceae family (e.g. Syringa vulgaris), their preparation and use” (CRODA ITALIANA S. P. A., priority 2005, dated 2019)
